Columns and labels:
[1] = system: CD3-/CD16+/CD56+ NK cells; assay: Circulating NK cell analysis after 14 days dosing; format: in vivo, rat
Description: Blood was collected and stained using BD MultiTest IMK kit (BD Biosciences, San Jose, CA) per manufacturer’s instructions. NK cell numbers were determined by using FlowJo analysis software (FlowJo, LLC, Ashland, OR) and by examining the CD3^−/CD16^+/CD56^+ population. The number of cells/μL was calculated by using the following equation: (# events in cell population/# of events in absolute bead count region) × (# beads per test/test volume), with the value beads per test indicated on the BD Trucount tube label.

ALK = ALK (Homo sapiens, UniProt Q9UM73); assay: trFRET binding kinome profiling
Description: (§1) JAK activity assays using isolated kinase domains in the presence of 0.1 mM ATP and trFRET kinome profiling were conducted as described previously (17).

AMPK = assay: trFRET binding kinome profiling
Description: as §1

Aurora 1 = Aurora 1 (Homo sapiens, UniProt Q96GD4); assay: trFRET binding kinome profiling
Description: as §1

BRAF = BRAF (Homo sapiens, UniProt P15056); assay: trFRET binding kinome profiling
Description: as §1

CDK2 = CDK2 (Homo sapiens, UniProt P24941); assay: trFRET binding kinome profiling
Description: as §1

CDK7/Cyclin H/Mat1 = CDK7/Cyclin H/Mat1 (Homo sapiens, UniProt P50613); assay: trFRET binding kinome profiling
Description: as §1

CSF1R = CSF1R (Homo sapiens, UniProt P07333); assay: trFRET binding kinome profiling
Description: as §1

DYRK1B = DYRK1B (Homo sapiens, UniProt Q9Y463); assay: trFRET binding kinome profiling
Sequence of DYRK1B (Q9Y463 whole entry, species assumed): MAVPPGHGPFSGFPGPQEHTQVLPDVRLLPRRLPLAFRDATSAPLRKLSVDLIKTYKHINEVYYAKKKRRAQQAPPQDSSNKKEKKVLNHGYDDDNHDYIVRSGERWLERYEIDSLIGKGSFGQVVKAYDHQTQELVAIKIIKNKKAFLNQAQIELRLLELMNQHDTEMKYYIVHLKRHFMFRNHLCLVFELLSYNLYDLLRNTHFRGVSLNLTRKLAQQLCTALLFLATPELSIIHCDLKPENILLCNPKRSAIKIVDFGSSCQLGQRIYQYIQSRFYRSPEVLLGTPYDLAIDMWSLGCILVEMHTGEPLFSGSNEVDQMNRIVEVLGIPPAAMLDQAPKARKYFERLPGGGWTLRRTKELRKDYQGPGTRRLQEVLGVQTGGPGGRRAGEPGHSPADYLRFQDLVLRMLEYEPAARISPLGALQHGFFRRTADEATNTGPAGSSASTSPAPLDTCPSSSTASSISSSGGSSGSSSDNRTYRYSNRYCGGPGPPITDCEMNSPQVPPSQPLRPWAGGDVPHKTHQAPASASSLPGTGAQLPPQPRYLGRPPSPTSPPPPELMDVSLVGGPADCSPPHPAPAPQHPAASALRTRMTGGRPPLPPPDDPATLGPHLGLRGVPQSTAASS
Description: as §1

Erk2 = Erk2 (Homo sapiens, UniProt P28482); assay: trFRET binding kinome profiling
Description: as §1

FAK = FAK (Homo sapiens, UniProt Q05397); assay: trFRET binding kinome profiling
Description: as §1

Gsk3a = Gsk3a (Homo sapiens, UniProt P49840); assay: trFRET binding kinome profiling
Sequence of Gsk3a (P49840 whole entry, species assumed): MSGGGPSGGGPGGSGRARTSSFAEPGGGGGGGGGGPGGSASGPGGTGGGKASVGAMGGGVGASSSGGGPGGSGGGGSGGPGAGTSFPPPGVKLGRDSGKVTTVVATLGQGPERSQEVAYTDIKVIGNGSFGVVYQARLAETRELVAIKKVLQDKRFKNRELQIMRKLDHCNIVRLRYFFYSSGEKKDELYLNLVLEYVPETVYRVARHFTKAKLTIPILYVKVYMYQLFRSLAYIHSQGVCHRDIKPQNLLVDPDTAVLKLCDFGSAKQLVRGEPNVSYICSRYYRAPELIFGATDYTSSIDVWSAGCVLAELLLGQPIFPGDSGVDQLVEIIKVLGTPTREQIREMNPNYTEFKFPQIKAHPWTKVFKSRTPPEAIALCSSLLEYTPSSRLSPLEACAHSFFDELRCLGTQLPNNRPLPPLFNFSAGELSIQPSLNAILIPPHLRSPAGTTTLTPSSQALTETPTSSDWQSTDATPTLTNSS
Description: as §1

IGF1R = IGF1R (Homo sapiens, UniProt P08069); assay: trFRET binding kinome profiling
Description: as §1

InsR = InsR (Homo sapiens, UniProt P06213); assay: trFRET binding kinome profiling
Description: as §1

JNK2 = JNK2 (Homo sapiens, UniProt P45984); assay: trFRET binding kinome profiling
Sequence of JNK2 (P45984 whole entry, species assumed): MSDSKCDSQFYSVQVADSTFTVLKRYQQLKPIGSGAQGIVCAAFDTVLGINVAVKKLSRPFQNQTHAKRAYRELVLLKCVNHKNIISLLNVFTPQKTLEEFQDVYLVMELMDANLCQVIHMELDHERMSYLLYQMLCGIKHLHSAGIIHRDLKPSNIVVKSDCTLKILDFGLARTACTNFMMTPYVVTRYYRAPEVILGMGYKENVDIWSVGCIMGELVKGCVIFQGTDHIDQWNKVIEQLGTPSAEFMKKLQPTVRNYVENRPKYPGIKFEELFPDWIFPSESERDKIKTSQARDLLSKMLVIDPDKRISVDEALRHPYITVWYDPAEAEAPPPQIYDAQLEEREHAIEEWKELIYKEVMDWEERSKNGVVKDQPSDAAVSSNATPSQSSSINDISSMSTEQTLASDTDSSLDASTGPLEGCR
Description: as §1

KDR = KDR (Homo sapiens, UniProt P35968); assay: trFRET binding kinome profiling
Description: as §1

MAP3K10 = MAP3K10 (Homo sapiens, UniProt Q02779); assay: trFRET binding kinome profiling
Description: as §1

MAP4K2 = MAP4K2 (Homo sapiens, UniProt Q12851); assay: trFRET binding kinome profiling
Description: as §1

Nek2 = Nek2 (Homo sapiens, UniProt P51955); assay: trFRET binding kinome profiling
Description: as §1

PDGFRB = PDGFRB (Homo sapiens, UniProt P09619); assay: trFRET binding kinome profiling
Sequence of PDGFRB (P09619 33-1106, species assumed): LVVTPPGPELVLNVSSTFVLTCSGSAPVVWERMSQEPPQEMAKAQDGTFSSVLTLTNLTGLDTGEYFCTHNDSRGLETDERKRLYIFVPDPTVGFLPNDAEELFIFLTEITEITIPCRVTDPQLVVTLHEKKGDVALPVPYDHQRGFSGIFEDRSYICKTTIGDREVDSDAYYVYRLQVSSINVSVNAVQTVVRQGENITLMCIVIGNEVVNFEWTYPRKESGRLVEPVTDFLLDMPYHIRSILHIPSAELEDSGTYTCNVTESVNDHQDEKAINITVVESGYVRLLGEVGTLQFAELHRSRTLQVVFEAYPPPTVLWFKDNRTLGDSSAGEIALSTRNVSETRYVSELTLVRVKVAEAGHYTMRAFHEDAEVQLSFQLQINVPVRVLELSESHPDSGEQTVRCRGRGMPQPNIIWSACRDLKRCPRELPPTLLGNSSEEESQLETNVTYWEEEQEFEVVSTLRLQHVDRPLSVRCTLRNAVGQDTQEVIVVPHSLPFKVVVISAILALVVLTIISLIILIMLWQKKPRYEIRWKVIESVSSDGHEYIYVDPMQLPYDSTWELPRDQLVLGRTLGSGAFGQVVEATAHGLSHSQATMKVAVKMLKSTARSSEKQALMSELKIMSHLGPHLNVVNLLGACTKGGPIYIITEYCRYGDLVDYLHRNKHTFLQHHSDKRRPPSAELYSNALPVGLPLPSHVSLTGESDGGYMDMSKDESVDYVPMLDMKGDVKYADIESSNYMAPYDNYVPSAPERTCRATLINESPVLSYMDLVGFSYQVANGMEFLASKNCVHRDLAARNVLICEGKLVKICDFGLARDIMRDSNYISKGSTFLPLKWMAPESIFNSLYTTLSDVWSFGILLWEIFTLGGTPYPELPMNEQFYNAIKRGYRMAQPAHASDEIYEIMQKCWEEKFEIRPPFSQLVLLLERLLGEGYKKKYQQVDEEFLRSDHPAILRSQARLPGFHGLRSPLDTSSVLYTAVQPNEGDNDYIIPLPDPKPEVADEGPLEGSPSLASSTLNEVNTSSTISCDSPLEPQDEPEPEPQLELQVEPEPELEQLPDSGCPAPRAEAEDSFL
Description: as §1

PKCtheta = PKCtheta (Homo sapiens, UniProt Q04759); assay: trFRET binding kinome profiling
Description: as §1

Pim1 = Pim1 (Homo sapiens, UniProt P11309); assay: trFRET binding kinome profiling
Description: as §1

Prkcn = Prkcn (Homo sapiens, UniProt O94806); assay: trFRET binding kinome profiling
Description: as §1

RET = RET (Homo sapiens, UniProt P07949); assay: trFRET binding kinome profiling
Description: as §1

Rock2 = Rock2 (Homo sapiens, UniProt O75116); assay: trFRET binding kinome profiling
Description: as §1

SGK1 = SGK1 (Homo sapiens, UniProt O00141); assay: trFRET binding kinome profiling
Sequence of SGK1 (O00141 whole entry, species assumed): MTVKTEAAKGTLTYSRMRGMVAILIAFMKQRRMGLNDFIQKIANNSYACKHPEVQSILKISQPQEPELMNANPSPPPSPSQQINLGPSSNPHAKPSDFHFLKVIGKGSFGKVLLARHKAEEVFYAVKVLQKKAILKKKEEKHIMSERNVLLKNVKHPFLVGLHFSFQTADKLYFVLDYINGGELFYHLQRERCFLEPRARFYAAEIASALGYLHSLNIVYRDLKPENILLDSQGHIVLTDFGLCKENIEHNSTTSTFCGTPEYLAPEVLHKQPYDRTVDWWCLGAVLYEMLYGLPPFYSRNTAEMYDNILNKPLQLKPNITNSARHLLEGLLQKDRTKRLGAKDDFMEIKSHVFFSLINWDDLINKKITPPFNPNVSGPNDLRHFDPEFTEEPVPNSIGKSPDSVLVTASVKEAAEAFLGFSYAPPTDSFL
Description: as §1

STK16 = STK16 (Homo sapiens, UniProt O75716); assay: trFRET binding kinome profiling
Description: as §1

STK33 = STK33 (Homo sapiens, UniProt Q9BYT3); assay: trFRET binding kinome profiling
Description: as §1

Src = Src (Homo sapiens, UniProt P12931); assay: trFRET binding kinome profiling
Description: as §1

Syk = Syk (Homo sapiens, UniProt P43405); assay: trFRET binding kinome profiling
Description: as §1

TBK1 = TBK1 (Homo sapiens, UniProt Q9UHD2); assay: trFRET binding kinome profiling
Description: as §1

TTK = TTK (Homo sapiens, UniProt P33981); assay: trFRET binding kinome profiling
Description: as §1

TYRO3 = TYRO3 (Homo sapiens, UniProt Q06418); assay: trFRET binding kinome profiling
Description: as §1

TrkA = TrkA (Homo sapiens, UniProt P04629); assay: trFRET binding kinome profiling
Description: as §1

TrkC = TrkC (Homo sapiens, UniProt Q16288); assay: trFRET binding kinome profiling
Sequence of TrkC (Q16288 32-839, species assumed): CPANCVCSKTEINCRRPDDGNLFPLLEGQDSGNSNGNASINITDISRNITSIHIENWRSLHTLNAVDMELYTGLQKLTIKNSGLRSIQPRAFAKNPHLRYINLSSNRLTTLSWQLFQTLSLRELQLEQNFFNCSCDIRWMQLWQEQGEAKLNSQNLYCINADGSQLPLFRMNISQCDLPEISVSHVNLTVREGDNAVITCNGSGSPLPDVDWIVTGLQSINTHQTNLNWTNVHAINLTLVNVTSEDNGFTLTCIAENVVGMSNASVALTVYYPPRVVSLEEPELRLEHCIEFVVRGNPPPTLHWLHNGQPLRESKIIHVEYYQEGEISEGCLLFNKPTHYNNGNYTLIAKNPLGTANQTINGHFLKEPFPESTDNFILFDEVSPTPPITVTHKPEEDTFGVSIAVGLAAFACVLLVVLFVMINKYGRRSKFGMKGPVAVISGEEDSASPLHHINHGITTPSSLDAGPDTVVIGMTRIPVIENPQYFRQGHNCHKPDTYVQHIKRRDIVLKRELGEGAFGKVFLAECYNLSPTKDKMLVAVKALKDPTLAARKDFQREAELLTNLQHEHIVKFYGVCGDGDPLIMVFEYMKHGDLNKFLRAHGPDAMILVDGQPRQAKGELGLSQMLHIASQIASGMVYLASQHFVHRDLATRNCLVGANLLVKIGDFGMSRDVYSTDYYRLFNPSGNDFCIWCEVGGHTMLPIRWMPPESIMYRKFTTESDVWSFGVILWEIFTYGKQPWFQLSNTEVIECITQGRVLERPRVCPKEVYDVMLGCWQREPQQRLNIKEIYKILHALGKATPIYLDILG
Description: as §1

Wee1 = Wee1 (Homo sapiens, UniProt P30291); assay: trFRET binding kinome profiling
Sequence of Wee1 (P30291 whole entry, species assumed): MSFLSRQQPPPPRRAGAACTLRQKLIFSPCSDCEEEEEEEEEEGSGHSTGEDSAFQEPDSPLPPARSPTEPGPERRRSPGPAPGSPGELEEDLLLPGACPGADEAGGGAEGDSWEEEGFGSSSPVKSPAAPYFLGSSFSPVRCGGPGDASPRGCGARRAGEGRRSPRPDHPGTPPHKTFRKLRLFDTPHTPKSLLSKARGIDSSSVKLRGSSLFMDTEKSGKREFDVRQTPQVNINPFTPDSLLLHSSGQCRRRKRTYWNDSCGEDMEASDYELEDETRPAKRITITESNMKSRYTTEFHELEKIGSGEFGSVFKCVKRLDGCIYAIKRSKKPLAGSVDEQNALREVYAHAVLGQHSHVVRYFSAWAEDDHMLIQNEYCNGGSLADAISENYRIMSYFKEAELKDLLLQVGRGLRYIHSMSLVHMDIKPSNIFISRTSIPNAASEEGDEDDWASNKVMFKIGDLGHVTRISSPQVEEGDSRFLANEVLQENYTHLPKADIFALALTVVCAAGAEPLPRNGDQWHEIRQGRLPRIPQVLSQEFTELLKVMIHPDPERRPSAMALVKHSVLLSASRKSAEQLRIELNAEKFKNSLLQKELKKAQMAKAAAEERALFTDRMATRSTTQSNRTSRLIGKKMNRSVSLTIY
Description: as §1

cMET = cMET (Homo sapiens, UniProt P08581); assay: trFRET binding kinome profiling
Description: as §1

p38 alpha = p38 alpha (Homo sapiens, UniProt Q16539); assay: trFRET binding kinome profiling
Description: as §1

JAK1 = JAK1 (Homo sapiens, UniProt P23458); assay: HTRF activity assay, recombinant JAK1 catalytic domain; settings: JAK1 IC50 at varying ATP (0.01-1 mM), Cheng-Prusoff; data not shown
Sequence of JAK1 (P23458 845-1142): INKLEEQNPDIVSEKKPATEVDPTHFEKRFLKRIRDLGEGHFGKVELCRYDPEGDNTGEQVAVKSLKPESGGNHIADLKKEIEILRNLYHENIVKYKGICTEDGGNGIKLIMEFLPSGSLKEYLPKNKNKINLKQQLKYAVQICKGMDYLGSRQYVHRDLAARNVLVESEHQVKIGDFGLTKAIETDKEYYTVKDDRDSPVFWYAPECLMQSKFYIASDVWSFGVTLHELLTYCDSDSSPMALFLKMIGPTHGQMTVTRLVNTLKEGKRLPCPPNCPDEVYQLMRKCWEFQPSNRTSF

CC[C@@H]1CN(C(=O)NCC(F)(F)F)C[C@@H]1c1cnc2cnc3[nH]ccc3n12 [upadacitinib, (3S,4R)-3-ethyl-4-(3H-imidazo [1,2-a]pyrrolo [2,3-e]pyrazin-8-yl)-N-(2,2,2-trifluoroethyl) pyrrolidine-1-carboxamide]
9.7 µM: IC50 (STK16)
2.4 µM: IC50 (RET)
> 1.5 µM: IC50 (KDR)
5.1 µM: IC50 (PKCtheta)
< 1 µM: IC50 (Rock2)
25%: Decrease in circulating NK cells at AUC60 ([1]; rat, at AUC60 of paw swelling)
ATP competitive inhibitor: Mechanism of JAK1 inhibition (JAK1)
> 10 µM: IC50 (BRAF) | IC50 (CDK2) | IC50 (CDK7/Cyclin H/Mat1) | IC50 (CSF1R) | IC50 (DYRK1B) | IC50 (Erk2) | IC50 (FAK) | IC50 (Gsk3a) | IC50 (IGF1R) | IC50 (InsR) | IC50 (JNK2) | IC50 (MAP3K10) | IC50 (MAP4K2) | IC50 (Nek2) | IC50 (PDGFRB) | IC50 (Pim1) | IC50 (Prkcn) | IC50 (SGK1) | IC50 (STK33) | IC50 (Src) | IC50 (Syk) | IC50 (TBK1) | IC50 (TTK) | IC50 (TYRO3) | IC50 (TrkA) | IC50 (TrkC) | IC50 (Wee1) | IC50 (cMET) | IC50 (p38 alpha)
> 5.5 µM: IC50 (ALK) | IC50 (Aurora 1)
480 ng·h/mL: AUC60 for decrease of circulating NK cell numbers ([1]; naive rats dosed orally for 14 days)
> 4.5 µM: IC50 (AMPK)

From publication PMC6390583 (BMC rheumatology, 2018)
